Drawing on PubChem BioAssay (NCI), this text covers GI50 and TGI for ten compounds.

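Five compound concentrations were applied to cells in 96-well plates for 48 hours; endpoints were derived by simple linear interpolation of the resulting dose-response curve. GI50: concentration for 50% inhibition of growth. At the TGI there is no net growth.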

Among the test systems are HOP-62 NSCLC; HT29 colon; K-562 leukemia; OVCAR-3 ovarian; RPMI-8226 leukemia; SR leukemia; UACC-257 melanoma; UACC-62 melanoma.
Experiment in all cases: inhibition of tumour cell growth, NCI panel, 48 h

For `O=P1(S)OC[C@H]2O[C@@H]3[C@H](F)[C@@H]2OP(O)(=S)OC[C@H]2O[C@H]([C@H](F)[C@@H]2O1)n1cnc2c(ncnc21)NC/C=C/CNc1ncnc2c1ncn23` (stereo partly specified), the GI50 with HOP-62 NSCLC is > 100 µM; in the experiment on HT29 colon, 43.7 µM; in the experiment with K-562 leukemia, > 100 µM; in the experiment on OVCAR-3 ovarian it was > 100 µM; in the experiment with RPMI-8226 leukemia it was > 100 µM; in the experiment on SR leukemia, 0.239 µM. Also, the values for the GI50 in the experiment on UACC-257 melanoma and with UACC-62 melanoma were 0.316 µM and > 100 µM, respectively. The TGI with HOP-62 NSCLC, in the experiment on HT29 colon, with K-562 leukemia, in the experiment with OVCAR-3 ovarian, with RPMI-8226 leukemia and in the experiment with SR leukemia was > 100 µM each time. Further, the TGI in the experiment on UACC-257 melanoma and with UACC-62 melanoma was > 100 µM in each case.

In the case of `NN=C(CC(O)(C(F)(F)Cl)C(F)(F)Cl)CC(O)(C(F)(F)Cl)C(F)(F)Cl`, the TGI in the experiment on HOP-62 NSCLC, in the experiment on HT29 colon, with K-562 leukemia, with OVCAR-3 ovarian, with RPMI-8226 leukemia and with SR leukemia was > 10 µM throughout. Besides, the TGI in the experiment on UACC-257 melanoma and with UACC-62 melanoma was > 10 µM in each case.

Consider `Cc1ccc(S(=O)(=O)c2nc(-c3ccccc3)oc2S(C)=O)cc1` (stereo unspecified), for which the GI50 with HOP-62 NSCLC is 6.87 µM; in the experiment on HT29 colon, 1.81 µM; in the experiment on K-562 leukemia, 1.4 µM; with OVCAR-3 ovarian, 1.03 µM; in the experiment with RPMI-8226 leukemia, 1.4 µM; in the experiment on SR leukemia, 1.67 µM. For the same compound, the GI50 with UACC-257 melanoma is 1.58 µM; with UACC-62 melanoma it was 1.5 µM. Further, the TGI came out at 20.3 µM in the experiment on HOP-62 NSCLC; 5.03 µM in the experiment with HT29 colon; 4.77 µM in the experiment on K-562 leukemia; 2.35 µM in the experiment on OVCAR-3 ovarian; 4.13 µM in the experiment on RPMI-8226 leukemia; 7.7 µM in the experiment on SR leukemia. Moreover, the TGI in the experiment on UACC-257 melanoma is 3.11 µM; in the experiment with UACC-62 melanoma, 2.87 µM.

With `COc1cc(NC(=O)CCSc2nc3ccc(C)cc3c(=O)n2Cc2ccccc2)cc(OC)c1OC`, the GI50 is 2.94 µM in the experiment on HOP-62 NSCLC; > 100 µM with HT29 colon; > 100 µM in the experiment with K-562 leukemia; 5.05 µM with OVCAR-3 ovarian; > 100 µM in the experiment with RPMI-8226 leukemia; > 100 µM in the experiment with SR leukemia. In addition, the GI50 was 4.96 µM in the experiment on UACC-257 melanoma and 15.7 µM in the experiment on UACC-62 melanoma. Also, the TGI with HOP-62 NSCLC is 9.47 µM; in the experiment on HT29 colon, > 100 µM; in the experiment with K-562 leukemia, > 100 µM; with OVCAR-3 ovarian, > 100 µM; with RPMI-8226 leukemia it was > 100 µM; in the experiment on SR leukemia, > 100 µM. Moreover, the TGI with UACC-257 melanoma and in the experiment on UACC-62 melanoma was > 100 µM throughout.

`Cc1c2c(c(C)c3c4c(oc13)CCCC4)C=NCC2`: the TGI amounted to 60.6 µM in the experiment with HOP-62 NSCLC; 29 µM with HT29 colon; 37.4 µM in the experiment on K-562 leukemia; 31.5 µM in the experiment on OVCAR-3 ovarian; 43 µM in the experiment on RPMI-8226 leukemia; 23.4 µM with SR leukemia. For the same compound, the TGI in the experiment on UACC-257 melanoma is 29.5 µM; with UACC-62 melanoma it was 29.6 µM.

Consider `COc1cc2c(cc1OC)C(=O)/C(=C/c1cc(-c3ccc4c(c3)OCO4)n[nH]1)C2`, for which the GI50 in the experiment on HOP-62 NSCLC was 1.53 µM; in the experiment with HT29 colon, 1.45 µM; in the experiment with K-562 leukemia, 1.59 µM; with OVCAR-3 ovarian, 1.41 µM; in the experiment with RPMI-8226 leukemia, 0.233 µM; with SR leukemia, 0.627 µM. In addition, the GI50 was 1.71 µM with UACC-257 melanoma and 1.63 µM in the experiment with UACC-62 melanoma. Besides, the TGI in the experiment on HOP-62 NSCLC is 2.96 µM; with HT29 colon, 3.09 µM; in the experiment with K-562 leukemia, > 100 µM; with OVCAR-3 ovarian it was 2.8 µM; in the experiment with RPMI-8226 leukemia, 0.623 µM; in the experiment with SR leukemia, 4.11 µM. The values for the TGI with UACC-257 melanoma and in the experiment on UACC-62 melanoma were 3.13 µM and 3.04 µM, respectively.

For the compound `O=C(Nn1c(-c2ccccc2)nc2ccccc2c1=O)c1ccccc1O`, the TGI in the experiment with HOP-62 NSCLC, with HT29 colon, in the experiment on K-562 leukemia, with OVCAR-3 ovarian, with RPMI-8226 leukemia and in the experiment on SR leukemia was > 100 µM throughout. Moreover, the results for the TGI with UACC-257 melanoma and with UACC-62 melanoma were > 100 µM and 77.2 µM, respectively.

In the case of `C1CC[N-]CC1.CC(=N\O)/C(C)=N/O.CC(=N\O)/C(C)=N/O.OC1[CH-]CCCC1.[Co+2]`, the GI50 with HOP-62 NSCLC was > 100 µM; in the experiment on HT29 colon, 72.5 µM; in the experiment on K-562 leukemia it was 33.4 µM; with OVCAR-3 ovarian, 52 µM; with RPMI-8226 leukemia it was 42.4 µM; in the experiment on SR leukemia, 20.5 µM. For the same compound, the GI50 with UACC-257 melanoma is 29.5 µM; in the experiment on UACC-62 melanoma it was 18.1 µM. The TGI in the experiment on HOP-62 NSCLC was > 100 µM; with HT29 colon, > 100 µM; with K-562 leukemia, > 100 µM; in the experiment on OVCAR-3 ovarian, > 100 µM; in the experiment with RPMI-8226 leukemia it was > 100 µM; with SR leukemia, 62.6 µM. Further, the figures for the TGI in the experiment with UACC-257 melanoma and in the experiment on UACC-62 melanoma were > 100 µM and 41.2 µM, respectively.

On to `O=C(Oc1ccc(CO[N+](=O)[O-])cc1)c1ccccc1`, for which the GI50 in the experiment on HOP-62 NSCLC was 0.161 µM; in the experiment with HT29 colon, 0.136 µM; in the experiment with K-562 leukemia it was 0.0708 µM; with OVCAR-3 ovarian, 0.153 µM; in the experiment on RPMI-8226 leukemia it was 0.0912 µM; in the experiment on SR leukemia, 0.115 µM. The GI50 was 0.207 µM in the experiment on UACC-257 melanoma and 0.169 µM in the experiment on UACC-62 melanoma. In addition, the TGI in the experiment with HOP-62 NSCLC was found to be 0.316 µM; in the experiment on HT29 colon, 0.27 µM; in the experiment on K-562 leukemia it was 0.325 µM; with OVCAR-3 ovarian, 0.295 µM; in the experiment on RPMI-8226 leukemia, 0.33 µM; in the experiment on SR leukemia, 0.542 µM. The results for the TGI in the experiment with UACC-257 melanoma and with UACC-62 melanoma were 0.532 µM and 0.396 µM, respectively.

`OCc1ccc(-c2cscc2-c2ccc(CO)o2)o1`: the GI50 in the experiment on HOP-62 NSCLC is 3.55 µM; in the experiment with HT29 colon, 7.03 µM; with K-562 leukemia, 7.02 µM; in the experiment on OVCAR-3 ovarian, 4.04 µM; in the experiment on RPMI-8226 leukemia, 28.4 µM; in the experiment on SR leukemia, > 100 µM. Moreover, the results for the GI50 with UACC-257 melanoma and in the experiment with UACC-62 melanoma were 0.507 µM and 0.435 µM, respectively. For the same compound, the TGI in the experiment with HOP-62 NSCLC was 37.6 µM; in the experiment on HT29 colon, > 100 µM; in the experiment on K-562 leukemia it was > 100 µM; with OVCAR-3 ovarian, 30.6 µM; with RPMI-8226 leukemia, > 100 µM; in the experiment with SR leukemia, > 100 µM. Also, the TGI with UACC-257 melanoma stood at 1.91 µM; in the experiment with UACC-62 melanoma, 2.2 µM.
